The results in this text go back to ChEMBL document CHEMBL1201862, “PubChem BioAssay data set” (2004).

One assay in a line: cells. The settings on record: HEK-CNG. It is filed as functional, cell-based.
The target in a further assay is T1, Galanin receptor type 3 (Homo sapiens, UniProt O60755).
T1 sequence (O60755 whole entry): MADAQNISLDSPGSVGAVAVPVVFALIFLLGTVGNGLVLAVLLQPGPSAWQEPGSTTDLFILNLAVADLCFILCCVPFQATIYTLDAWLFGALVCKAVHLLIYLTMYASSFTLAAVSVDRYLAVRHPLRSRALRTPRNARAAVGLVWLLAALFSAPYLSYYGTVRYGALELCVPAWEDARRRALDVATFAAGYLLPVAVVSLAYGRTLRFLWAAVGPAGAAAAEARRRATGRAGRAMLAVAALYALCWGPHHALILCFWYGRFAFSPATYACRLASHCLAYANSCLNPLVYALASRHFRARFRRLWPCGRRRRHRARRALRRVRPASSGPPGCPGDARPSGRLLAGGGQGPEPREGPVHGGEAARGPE
Put plainly: Fluorescence-based cell-based primary high throughput dose response assay to identify antagonists of the Galanin Receptor 3 (GalR3). It is filed as functional.

A short description of assay [1]: NIH3T3 cell viability loss – ATP luminescence, mouse fibroblasts, counter-screen, dose response (AID 2010).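 Also: cells exposed to compound for about 90 hours before reading.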 It is filed as functional, cell-based.
For assay [2], the target named is T2, DNA repair and recombination protein RAD54-like (Homo sapiens, UniProt Q92698).
T2 sequence (Q92698 whole entry): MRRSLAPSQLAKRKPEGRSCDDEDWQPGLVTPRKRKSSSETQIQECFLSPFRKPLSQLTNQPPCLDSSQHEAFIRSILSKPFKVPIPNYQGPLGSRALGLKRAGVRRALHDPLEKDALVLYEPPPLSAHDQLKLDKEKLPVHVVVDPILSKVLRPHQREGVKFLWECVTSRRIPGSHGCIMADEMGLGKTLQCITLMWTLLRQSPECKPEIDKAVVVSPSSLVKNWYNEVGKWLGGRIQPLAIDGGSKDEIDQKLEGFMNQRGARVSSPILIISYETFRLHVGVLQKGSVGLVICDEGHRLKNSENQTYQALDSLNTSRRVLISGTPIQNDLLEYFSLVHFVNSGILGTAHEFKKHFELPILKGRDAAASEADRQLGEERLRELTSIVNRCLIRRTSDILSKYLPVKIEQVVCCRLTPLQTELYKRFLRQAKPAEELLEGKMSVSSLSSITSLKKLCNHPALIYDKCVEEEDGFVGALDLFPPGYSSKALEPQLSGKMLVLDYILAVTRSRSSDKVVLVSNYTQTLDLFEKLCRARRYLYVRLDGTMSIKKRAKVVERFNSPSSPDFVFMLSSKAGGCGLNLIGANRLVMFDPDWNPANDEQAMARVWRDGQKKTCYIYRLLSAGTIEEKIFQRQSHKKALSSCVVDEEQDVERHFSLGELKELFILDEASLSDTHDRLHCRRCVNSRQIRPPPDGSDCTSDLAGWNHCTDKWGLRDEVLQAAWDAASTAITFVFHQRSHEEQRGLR
Put plainly: RAD54 Holliday junction migration blockers – biochemical, fluorescence, cherry-picked samples, dose series, confirmation (AID 651657). It is filed as functional.

For assay [3], the target named is T3, Replicative DNA helicase DnaB (Mycobacterium tuberculosis, UniProt P9WMR3).
T3 sequence (P9WMR3 whole entry): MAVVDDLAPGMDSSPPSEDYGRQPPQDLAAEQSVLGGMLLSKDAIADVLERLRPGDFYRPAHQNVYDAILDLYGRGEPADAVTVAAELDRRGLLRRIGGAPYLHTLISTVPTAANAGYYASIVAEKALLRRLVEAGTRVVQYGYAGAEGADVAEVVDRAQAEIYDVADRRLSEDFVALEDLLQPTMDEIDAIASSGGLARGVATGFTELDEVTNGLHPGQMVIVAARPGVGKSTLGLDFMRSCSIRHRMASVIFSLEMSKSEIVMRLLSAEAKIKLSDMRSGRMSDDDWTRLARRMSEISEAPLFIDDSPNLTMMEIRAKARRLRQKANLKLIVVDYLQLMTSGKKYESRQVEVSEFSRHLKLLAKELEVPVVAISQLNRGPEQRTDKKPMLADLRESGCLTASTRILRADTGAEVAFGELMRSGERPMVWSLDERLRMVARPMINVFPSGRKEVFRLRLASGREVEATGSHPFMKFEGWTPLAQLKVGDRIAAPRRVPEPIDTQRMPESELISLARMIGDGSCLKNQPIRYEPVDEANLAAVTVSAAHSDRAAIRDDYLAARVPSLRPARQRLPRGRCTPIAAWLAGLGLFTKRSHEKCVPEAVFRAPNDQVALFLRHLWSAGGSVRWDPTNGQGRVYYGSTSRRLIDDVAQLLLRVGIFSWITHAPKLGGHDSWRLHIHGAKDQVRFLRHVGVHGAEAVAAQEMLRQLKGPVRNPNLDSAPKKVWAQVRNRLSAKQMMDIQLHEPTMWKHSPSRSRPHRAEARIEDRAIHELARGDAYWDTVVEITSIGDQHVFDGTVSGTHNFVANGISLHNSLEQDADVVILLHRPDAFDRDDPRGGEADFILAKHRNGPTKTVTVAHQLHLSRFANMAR
Put plainly: DnaB intein splicing inhibitors, dose response, biochemical, cell-free fluorescence (AID 449749). It is filed as functional.

A short description of assay [4]: microbe, parasite or virus in culture. The note with it: Mycobacterium tuberculosis. It is filed as functional.
A short description of assay [5]: Trypanosoma cruzi growth suppression in host cells – NIH3T3 host cells, beta-gal luminescence, confirmation (AID 2044).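 Also: intracellular parasites grown in NIH/3T3 mouse fibroblasts as host cells; luminescent beta-galactosidase reporter signal from transgenic T. cruzi replicating inside host cells; inhibitors lower the luminescence signal.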 It is filed as functional, cell-based.
A further assay has as its target T4, Protein RecA (Mycobacterium tuberculosis, UniProt P9WHJ3).
T4 sequence (P9WHJ3 whole entry): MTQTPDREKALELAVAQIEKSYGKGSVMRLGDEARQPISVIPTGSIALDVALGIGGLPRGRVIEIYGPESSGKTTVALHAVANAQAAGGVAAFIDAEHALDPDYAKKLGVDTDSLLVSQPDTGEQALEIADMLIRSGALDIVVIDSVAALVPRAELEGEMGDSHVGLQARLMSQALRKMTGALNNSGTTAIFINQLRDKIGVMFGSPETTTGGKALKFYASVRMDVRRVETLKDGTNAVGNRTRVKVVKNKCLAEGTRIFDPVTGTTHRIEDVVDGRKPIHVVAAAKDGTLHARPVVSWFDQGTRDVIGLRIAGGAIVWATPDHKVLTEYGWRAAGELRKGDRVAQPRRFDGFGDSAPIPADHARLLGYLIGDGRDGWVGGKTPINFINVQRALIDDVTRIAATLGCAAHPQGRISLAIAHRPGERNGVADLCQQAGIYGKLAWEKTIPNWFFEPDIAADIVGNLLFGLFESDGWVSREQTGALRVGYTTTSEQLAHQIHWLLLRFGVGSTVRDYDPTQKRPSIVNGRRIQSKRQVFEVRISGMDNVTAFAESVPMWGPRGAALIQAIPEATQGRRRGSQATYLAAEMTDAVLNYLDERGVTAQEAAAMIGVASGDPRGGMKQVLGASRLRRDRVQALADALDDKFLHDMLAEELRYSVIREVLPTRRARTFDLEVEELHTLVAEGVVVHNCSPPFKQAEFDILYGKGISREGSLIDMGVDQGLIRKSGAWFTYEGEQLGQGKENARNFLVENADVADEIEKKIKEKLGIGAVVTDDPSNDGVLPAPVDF
Put plainly: Fluorescence Cell-Free Homogeneous Dose Retest to Identify Inhibitors of RecA-Intein Splicing Activity. [Related pubchem assays (depositor defined):AID2097, AID2223, AID489010, AID492950]. In kind it is functional.

Assay [6] can be described thus: reduction of Shn3 3'UTR-driven luciferase in osteoblasts – cell-based, Clone20 osteoblasts, firefly luciferase, cherry-picked, dose response (AID 624132).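 Also: firefly luciferase luminescence from reporter carrying the Shn3 3'UTR in osteoblasts.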 It is filed as functional.
A short description of assay [7]: HIV-1 AD8 envelope cell-cell fusion blockers – cherry-pick, dose response (AID 652062).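 Also: luciferase signal from cell-cell fusion driven by HIV-1 clade B AD8 Env; potency is for inhibitors of fusion seen as a drop in luminescence.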 In kind it is functional, cell-based.
Assay [8] can be described thus: non-specific 3'UTR reporter inhibition in Clone20-Shn3RL – cell-based, Renilla luciferase, cherry-picked, counter-screen for Shn3 inhibitor project, dose response (AID 624133). It is filed as functional.
Assay [9] in a line: loss of viability in HepG2 cells – cell-based, CellTiter-Glo, cherry-picked, cytotoxicity control for Shn3 inhibitor project, dose response (AID 624134). It is filed as functional.
Assay [10] concerns the target T5, Histone-lysine N-methyltransferase NSD2 (Homo sapiens, UniProt O96028).
T5 sequence (O96028 whole entry): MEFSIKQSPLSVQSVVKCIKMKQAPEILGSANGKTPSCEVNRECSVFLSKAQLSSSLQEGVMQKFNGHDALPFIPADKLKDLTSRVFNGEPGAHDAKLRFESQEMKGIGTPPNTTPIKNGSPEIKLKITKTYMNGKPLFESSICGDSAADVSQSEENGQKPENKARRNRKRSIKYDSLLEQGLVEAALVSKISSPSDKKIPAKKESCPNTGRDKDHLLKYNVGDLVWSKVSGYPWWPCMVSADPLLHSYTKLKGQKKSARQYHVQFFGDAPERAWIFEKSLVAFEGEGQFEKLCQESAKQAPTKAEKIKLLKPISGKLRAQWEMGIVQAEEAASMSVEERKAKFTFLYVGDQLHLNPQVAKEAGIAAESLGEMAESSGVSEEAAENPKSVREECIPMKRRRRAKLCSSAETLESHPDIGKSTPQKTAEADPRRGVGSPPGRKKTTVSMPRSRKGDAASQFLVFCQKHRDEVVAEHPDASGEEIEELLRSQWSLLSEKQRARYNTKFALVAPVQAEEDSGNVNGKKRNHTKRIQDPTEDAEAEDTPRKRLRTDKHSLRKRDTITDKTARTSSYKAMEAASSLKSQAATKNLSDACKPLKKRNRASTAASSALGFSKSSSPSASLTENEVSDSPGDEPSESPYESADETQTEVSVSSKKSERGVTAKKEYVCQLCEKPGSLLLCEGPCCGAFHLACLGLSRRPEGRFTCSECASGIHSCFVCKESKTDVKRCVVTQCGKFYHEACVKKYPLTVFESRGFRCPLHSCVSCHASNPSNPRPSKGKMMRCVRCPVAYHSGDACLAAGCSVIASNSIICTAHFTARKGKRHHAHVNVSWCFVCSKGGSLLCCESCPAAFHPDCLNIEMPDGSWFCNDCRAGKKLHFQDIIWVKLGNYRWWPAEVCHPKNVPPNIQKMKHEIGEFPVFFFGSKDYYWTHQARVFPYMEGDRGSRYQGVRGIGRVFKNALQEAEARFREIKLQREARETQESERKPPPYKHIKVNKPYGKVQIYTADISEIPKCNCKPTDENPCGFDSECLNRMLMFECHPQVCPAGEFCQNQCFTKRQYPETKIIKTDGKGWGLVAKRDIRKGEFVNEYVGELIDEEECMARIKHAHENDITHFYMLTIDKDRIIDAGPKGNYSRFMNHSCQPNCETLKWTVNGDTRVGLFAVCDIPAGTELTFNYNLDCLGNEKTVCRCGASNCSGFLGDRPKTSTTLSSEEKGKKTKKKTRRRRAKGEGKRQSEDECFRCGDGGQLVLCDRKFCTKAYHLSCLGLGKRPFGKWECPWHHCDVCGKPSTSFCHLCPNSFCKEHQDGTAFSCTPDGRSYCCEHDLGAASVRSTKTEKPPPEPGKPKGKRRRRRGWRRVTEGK
It is filed as biochemical.

In the next assay the target is Cytochrome P450 2C9 (Homo sapiens, UniProt P11712).
For a further assay, the target named is Paired box protein Pax-8 (Homo sapiens, UniProt Q06710). Put plainly: PAX8 transcriptional activity inhibition in RMG-I – RMG-I cells, luciferase, cherry-pick, dose response (AID 687027).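 Also: luciferase reporter driven by Pax8 target thyroperoxidase promoter measured by SteadyGlo luminescence.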 In kind it is functional, cell-based.
A further assay relates to Vero. Put plainly: cells. It is filed as functional. The note with it: Chlorocebus sabaeus.
Assay [11] concerns the target T6, Calpain-2 catalytic subunit (Sus scrofa, UniProt P43367).
T6 sequence (P43367 whole entry): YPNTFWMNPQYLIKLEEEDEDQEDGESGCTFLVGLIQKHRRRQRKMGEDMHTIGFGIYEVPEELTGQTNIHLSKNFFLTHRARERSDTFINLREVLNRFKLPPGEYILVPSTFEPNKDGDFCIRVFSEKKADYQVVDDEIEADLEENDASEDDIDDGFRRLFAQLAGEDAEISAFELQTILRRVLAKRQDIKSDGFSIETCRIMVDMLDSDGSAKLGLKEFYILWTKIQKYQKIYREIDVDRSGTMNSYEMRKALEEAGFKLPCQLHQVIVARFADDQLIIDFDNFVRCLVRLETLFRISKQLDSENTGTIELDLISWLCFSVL
Put plainly: m-calpain protease blockers, concentration series – biochemical, fluorogenic peptide substrate, dose response (AID 1420). It is filed as functional.

Another assay concerns INS1. Put plainly: INS-1E survival protection against cytokine death – cell-based, luminescence, retest, dose response (AID 449756).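 Also: cell death triggered by IL-1 beta plus TNF-alpha plus IFN-gamma mixture; protective hits raise ATP signal compared with cytokine alone wells.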 The settings on record: Rattus norvegicus. In kind it is functional.

The structures appear in SMILES notation. The source made the active and inactive calls.

Chain of Cytochrome P450 2C9 (P11712 whole entry): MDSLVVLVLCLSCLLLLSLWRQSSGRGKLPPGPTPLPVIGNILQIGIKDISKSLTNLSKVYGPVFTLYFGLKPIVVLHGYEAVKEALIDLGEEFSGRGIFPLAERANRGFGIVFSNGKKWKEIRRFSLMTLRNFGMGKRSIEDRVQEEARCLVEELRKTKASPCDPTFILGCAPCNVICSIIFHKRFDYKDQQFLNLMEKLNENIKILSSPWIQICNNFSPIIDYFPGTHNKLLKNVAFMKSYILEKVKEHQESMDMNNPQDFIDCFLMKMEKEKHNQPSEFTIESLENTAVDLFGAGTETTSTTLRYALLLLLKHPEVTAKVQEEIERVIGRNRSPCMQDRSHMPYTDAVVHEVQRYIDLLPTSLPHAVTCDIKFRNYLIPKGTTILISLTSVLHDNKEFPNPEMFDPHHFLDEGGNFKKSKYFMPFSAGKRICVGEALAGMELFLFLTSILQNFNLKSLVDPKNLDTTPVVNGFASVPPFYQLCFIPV
Chain of Paired box protein Pax-8 (Q06710 whole entry): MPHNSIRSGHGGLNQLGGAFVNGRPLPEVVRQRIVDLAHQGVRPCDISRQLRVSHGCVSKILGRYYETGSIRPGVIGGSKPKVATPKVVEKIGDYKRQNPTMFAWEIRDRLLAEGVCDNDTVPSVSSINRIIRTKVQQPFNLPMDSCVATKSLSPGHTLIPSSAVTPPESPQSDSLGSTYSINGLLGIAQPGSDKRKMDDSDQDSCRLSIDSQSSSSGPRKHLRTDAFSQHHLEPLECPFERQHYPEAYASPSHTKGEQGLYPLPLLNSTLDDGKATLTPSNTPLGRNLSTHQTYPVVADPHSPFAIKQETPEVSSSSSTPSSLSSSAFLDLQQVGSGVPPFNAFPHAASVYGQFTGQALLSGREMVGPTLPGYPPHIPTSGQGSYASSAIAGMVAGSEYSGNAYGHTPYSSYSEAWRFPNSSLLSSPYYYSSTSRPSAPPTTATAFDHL

With `COc1ccc(-c2cn(-c3ccc(C)c(Cl)c3)c(S)n2)cc1OC`, the EC50 in the assay “cells” is > 29.9 µM (inactive). In addition, the IC50 on Galanin receptor type 3 was > 29.9 µM (inactive).
Take `COc1ccc(Nc2nc(N3CCCCC3)nc3ccccc23)c(OC)c1`: the EC50 is > 60 µM (inconclusive) in assay [1], 0.578 µM (active) in assay [5] and 114 µM (active) at Protein RecA. In addition, the AC50 in assay [2] is 62.2 µM (active); in assay [3], 280 µM (active). Besides, the CC50 in assay [4] was > 40 µM (active).
As to `C=CCNc1nc2c(c(=O)n(C)c(=O)n2C)n1CCCCCC`, in “cells”, the EC50 was > 29.9 µM (inactive). Moreover, the AC50 in assay [6] is 0.761 µM (active); in assay [7] it was 7.74 µM (active); in [8], 1.18 µM (active); in assay [9], 2.6 µM (active). In addition, the IC50 at Galanin receptor type 3 is 1.95 µM (active).
As for `CN(C)c1ccc(CNCCC(Cc2ccccc2)c2ccco2)cc1` (centres undefined), the AC50 in assay [10] was > 20 µM (inactive).
As to `Nc1nn2c(O)c3c(nc2c1N=Nc1ccccc1)CCCC3`, the EC50 in “cells” was > 29.9 µM (inactive). For the same molecule, the AC50 at Cytochrome P450 2C9 was 8.91 µM (inconclusive). In addition, on Galanin receptor type 3, the IC50 is 3.7 µM (active).
Take `COc1ccc(-c2csc(NC(=O)c3ccccc3NS(=O)(=O)c3ccc(F)c(F)c3)n2)cc1`: in the assay “cells”, the EC50 was > 29.9 µM (inactive). Further, the AC50 on Paired box protein Pax-8 is 2.64 µM (active); with INS1, 3.05 µM (active). For the same molecule, in the assay on Vero, the CC50 is 2.03 µM (active). In addition, the figures for the IC50 (at Galanin receptor type 3; in assay [11]) were 1.4 µM (active) and > 50 µM (not active), respectively.
